# Species on record: Rattus norvegicus
# Assay: Open TG-GATES - Regimen: Single
# Assay type: toxicity, organism-based, Sprague-Dawley
# Set-up: regimen Single, gender Male, age 6 weeks
# Details: in vivo, po, 30 mg/kg, route gavage, dose level Low; for APTT / Bas / Eos / Fbg / Hb / Ht / Lym / MCH / MCHC / MCV / Mono / Neu / PT / Plat / RBC / Ret / WBC: tissue Blood; for KIDNEY_L / KIDNEY_R / KIDNEY_TOTAL: tissue Kidney; for LIVER: tissue Liver; for A/G / ALP / ALT / AST / BUN / CRE / Ca / Cl / DBIL / GLC / IP / K / LDH / Na / PL / RALB / TBIL / TC / TG / TP / gamma-GTP: tissue Plasma
smiles,measurement,setting,value
Nc1ccc(Cc2ccc(N)cc2)cc1,TERMINAL_BW,3 h,209.5 g
same,APTT,3 h,14.3 s
same,Bas,3 h,0%
same,Eos,3 h,0.6%
same,Fbg,3 h,262.8 mg/dL
same,Hb,3 h,13 g/dL
same,Ht,3 h,38%
same,Lym,3 h,74.2%
same,MCH,3 h,21 pg
same,MCHC,3 h,34.1%
same,MCV,3 h,61.4 fL
same,Mono,3 h,3.6%
same,Neu,3 h,20.8%
same,PT,3 h,12 s
same,Plat,3 h,147.2 x10_4/uL
same,RBC,3 h,619 x10_4/ul
same,Ret,3 h,7.8%
same,WBC,3 h,100.2 x10_2/uL
same,KIDNEY_L,3 h,0.9 g
same,KIDNEY_R,3 h,0.9 g
same,KIDNEY_TOTAL,3 h,1.8 g
same,LIVER,3 h,8.8 g
same,A/G,3 h,0.8
same,ALP,3 h,1545.4 IU/L
same,ALT,3 h,47.4 IU/L
same,AST,3 h,81.6 IU/L
same,BUN,3 h,11 mg/dL
same,CRE,3 h,0.2 mg/dL
same,Ca,3 h,10.9 mg/dL
same,Cl,3 h,105 meq/L
same,DBIL,3 h,0.022 mg/dL
same,GLC,3 h,172 mg/dL
same,IP,3 h,9.1 mg/dL
same,K,3 h,3.8 meq/L
same,LDH,3 h,65.4 IU/L
same,Na,3 h,141.2 meq/L
same,PL,3 h,138.6 mg/dL
same,RALB,3 h,2.6 g/dL
same,TBIL,3 h,0.062 mg/dL
same,TC,3 h,73 mg/dL
same,TG,3 h,79.4 mg/dL
same,TP,3 h,5.6 g/dL
same,gamma-GTP,3 h,1.4 IU/L
same,TERMINAL_BW,6 h,206.3 g
same,APTT,6 h,14.7 s
same,Bas,6 h,0%
same,Eos,6 h,0.6%
same,Fbg,6 h,274.6 mg/dL
same,Hb,6 h,13.2 g/dL
same,Ht,6 h,38.9%
same,Lym,6 h,70.8%
same,MCH,6 h,21.3 pg
same,MCHC,6 h,34%
same,MCV,6 h,62.7 fL
same,Mono,6 h,2.2%
same,Neu,6 h,25.2%
same,PT,6 h,11.5 s
same,Plat,6 h,141.7 x10_4/uL
same,RBC,6 h,621.2 x10_4/ul
same,Ret,6 h,8.2%
same,WBC,6 h,77.7 x10_2/uL
same,KIDNEY_L,6 h,0.9 g
same,KIDNEY_R,6 h,0.9 g
same,KIDNEY_TOTAL,6 h,1.8 g
same,LIVER,6 h,8.6 g
same,A/G,6 h,0.8
same,ALP,6 h,1547 IU/L
same,ALT,6 h,37.2 IU/L
same,AST,6 h,74.2 IU/L
same,BUN,6 h,7.4 mg/dL
same,CRE,6 h,0.2 mg/dL
same,Ca,6 h,10.7 mg/dL
same,Cl,6 h,107.2 meq/L
same,DBIL,6 h,0.022 mg/dL
same,GLC,6 h,167 mg/dL
same,IP,6 h,9.6 mg/dL
same,K,6 h,4 meq/L
same,LDH,6 h,52.4 IU/L
same,Na,6 h,141.8 meq/L
same,PL,6 h,146.2 mg/dL
same,RALB,6 h,2.5 g/dL
same,TBIL,6 h,0.074 mg/dL
same,TC,6 h,81 mg/dL
same,TG,6 h,61.2 mg/dL
same,TP,6 h,5.6 g/dL
same,gamma-GTP,6 h,1.2 IU/L
same,TERMINAL_BW,9 h,205 g
same,APTT,9 h,13.5 s
same,Bas,9 h,0%
same,Eos,9 h,0.8%
same,Fbg,9 h,260 mg/dL
same,Hb,9 h,12.8 g/dL
same,Ht,9 h,37.2%
same,Lym,9 h,74%
same,MCH,9 h,21.3 pg
same,MCHC,9 h,34.2%
same,MCV,9 h,62.1 fL
same,Mono,9 h,2.4%
same,Neu,9 h,22%
same,PT,9 h,11.8 s
same,Plat,9 h,138.8 x10_4/uL
same,RBC,9 h,600 x10_4/ul
same,Ret,9 h,8.6%
same,WBC,9 h,106 x10_2/uL
same,KIDNEY_L,9 h,0.9 g
same,KIDNEY_R,9 h,0.9 g
same,KIDNEY_TOTAL,9 h,1.8 g
same,LIVER,9 h,7.6 g
same,A/G,9 h,0.8
same,ALP,9 h,1400.6 IU/L
same,ALT,9 h,34.4 IU/L
same,AST,9 h,75.4 IU/L
same,BUN,9 h,8.8 mg/dL
same,CRE,9 h,0.2 mg/dL
same,Ca,9 h,10.5 mg/dL
same,Cl,9 h,106.8 meq/L
same,DBIL,9 h,0.03 mg/dL
same,GLC,9 h,167.6 mg/dL
same,IP,9 h,11.3 mg/dL
same,K,9 h,4.1 meq/L
same,LDH,9 h,53.8 IU/L
same,Na,9 h,143.4 meq/L
same,PL,9 h,134.6 mg/dL
same,RALB,9 h,2.5 g/dL
same,TBIL,9 h,0.094 mg/dL
same,TC,9 h,76 mg/dL
same,TG,9 h,50.2 mg/dL
same,TP,9 h,5.4 g/dL
same,gamma-GTP,9 h,1.6 IU/L
same,TERMINAL_BW,24 h,219.9 g
same,APTT,24 h,13.8 s
same,Bas,24 h,0%
same,Eos,24 h,1%
same,Fbg,24 h,278.6 mg/dL
same,Hb,24 h,13.4 g/dL
same,Ht,24 h,38.6%
same,Lym,24 h,72.2%
same,MCH,24 h,20.9 pg
same,MCHC,24 h,34.7%
same,MCV,24 h,60.2 fL
same,Mono,24 h,2.6%
same,Neu,24 h,23.6%
same,PT,24 h,11.6 s
same,Plat,24 h,137.1 x10_4/uL
same,RBC,24 h,640.4 x10_4/ul
same,Ret,24 h,6.5%
same,WBC,24 h,93 x10_2/uL
same,KIDNEY_L,24 h,0.9 g
same,KIDNEY_R,24 h,1 g
same,KIDNEY_TOTAL,24 h,1.9 g
same,LIVER,24 h,10.1 g
same,A/G,24 h,0.9
same,ALP,24 h,1877.6 IU/L
same,ALT,24 h,44 IU/L
same,AST,24 h,82 IU/L
same,BUN,24 h,14.8 mg/dL
same,CRE,24 h,0.2 mg/dL
same,Ca,24 h,11.1 mg/dL
same,Cl,24 h,105.6 meq/L
same,DBIL,24 h,0.02 mg/dL
same,GLC,24 h,168.4 mg/dL
same,IP,24 h,8 mg/dL
same,K,24 h,4 meq/L
same,LDH,24 h,53.6 IU/L
same,Na,24 h,143.4 meq/L
same,PL,24 h,160.2 mg/dL
same,RALB,24 h,2.7 g/dL
same,TBIL,24 h,0.046 mg/dL
same,TC,24 h,92.8 mg/dL
same,TG,24 h,91.6 mg/dL
same,TP,24 h,5.7 g/dL
same,gamma-GTP,24 h,1 IU/L

# From ChEMBL document CHEMBL3885861, “Open TG-GATES”
